How the values were obtained:
[1] = (§1) The drug is tested on WLS-007 corresponding to human gut metagenome with ENA study accession number: PRJEB37062 and ENA sample accession number: ERS12561742 for biotransformation under anaerobic condition. The drug concentrations were measured over 9 timepoints collected between 0 and 24 hours of incubation by liquid-chromatography-coupled mass spectrometry (LC–MS); settings: 2 µM
[2] = human gut metagenome, 24 h, 2 µM
[3] = human gut metagenome, 24 h, 2 µM; remark: listed apart in the source
[4] = as §1, with “WLS-027” for “WLS-007”, “ERS12561744” for “ERS12561742”; settings: 2 µM
[5] = human gut metagenome, 24 h, 2 µM; remark: listed apart in the source
[6] = as §1, with “Z-017” for “WLS-007”, “mouse” for “human”, “ERS12561816” for “ERS12561742”; settings: 2 µM
[7] = as §1, with “Z-001” for “WLS-007”, “mouse” for “human”, “ERS12561801” for “ERS12561742”; settings: 2 µM
[8] = as §1, with “Z-002” for “WLS-007”, “rabbit” for “human”, “ERS12561802” for “ERS12561742”; settings: 2 µM
[9] = human gut metagenome, 24 h, 2 µM; remark: listed apart in the source
[10] = human gut metagenome, 24 h, 2 µM; remark: listed apart in the source
[11] = as §1, with “WLS-052” for “WLS-007”, “ERS12561747” for “ERS12561742”; settings: 2 µM
[12] = as §1, with “Z-011” for “WLS-007”, “mouse” for “human”, “ERS12561811” for “ERS12561742”; settings: 2 µM
[13] = as §1, with “Z-024” for “WLS-007”, “pig” for “human”, “ERS12561823” for “ERS12561742”; settings: 2 µM
[14] = as §1, with “Z-014” for “WLS-007”, “rat” for “human”, “ERS12561814” for “ERS12561742”; settings: 2 µM
[15] = as §1, with “Z-007” for “WLS-007”, “rat” for “human”, “ERS12561807” for “ERS12561742”; settings: 2 µM
[16] = as §1, with “WLS-073” for “WLS-007”, “ERS12561749” for “ERS12561742”; settings: 2 µM
[17] = human gut metagenome, 24 h, 2 µM; remark: listed apart in the source
[18] = as §1, with “WLS-006” for “WLS-007”, “ERS12561741” for “ERS12561742”; settings: 2 µM
[19] = human gut metagenome, 24 h, 2 µM; remark: listed apart in the source
[20] = as §1, with “WLS-220” for “WLS-007”, “ERS12561769” for “ERS12561742”; settings: 2 µM
Also: call rule not given here.

## CC1Cc2ccccc2N1NC(=O)c1ccc(Cl)c(S(N)(=O)=O)c1 (stereo not given) [INDAPAMIDE]
[1]
  Bacterial Biotransformation: Compound NOT metabolized
[2]
  Bacterial Biotransformation: Compound NOT metabolized
[3]
  Bacterial Biotransformation: Compound NOT metabolized
[4]
  Bacterial Biotransformation: Compound NOT metabolized
[5]
  Bacterial Biotransformation: Compound NOT metabolized
[6]
  Bacterial Biotransformation: Compound NOT metabolized
[7]
  Bacterial Biotransformation: Compound NOT metabolized
[8]
  Bacterial Biotransformation: Compound NOT metabolized
[9]
  Bacterial Biotransformation: Compound NOT metabolized
[10]
  Bacterial Biotransformation: Compound NOT metabolized
[11]
  Bacterial Biotransformation: Compound NOT metabolized
[12]
  Bacterial Biotransformation: Compound NOT metabolized
[13]
  Bacterial Biotransformation: Compound NOT metabolized
[14]
  Bacterial Biotransformation: Compound NOT metabolized
[15]
  Bacterial Biotransformation: Compound NOT metabolized
[16]
  Bacterial Biotransformation: Compound NOT metabolized
[17]
  Bacterial Biotransformation: Compound NOT metabolized
[18]
  Bacterial Biotransformation: Compound NOT metabolized
[19]
  Bacterial Biotransformation: Compound NOT metabolized
[20]
  Bacterial Biotransformation: Compound NOT metabolized

## COc1ccc2c(c1)c(CC(=O)O)c(C)n2C(=O)c1ccc(Cl)cc1 [INDOMETHACIN]
[1]
  Bacterial Biotransformation: Compound metabolized
[2]
  Bacterial Biotransformation: Compound metabolized
[3]
  Bacterial Biotransformation: Compound metabolized
[4]
  Bacterial Biotransformation: Compound metabolized
[5]
  Bacterial Biotransformation: Compound metabolized
[6]
  Bacterial Biotransformation: Compound NOT metabolized
[7]
  Bacterial Biotransformation: Compound NOT metabolized
[8]
  Bacterial Biotransformation: Compound NOT metabolized
[9]
  Bacterial Biotransformation: Compound metabolized
[10]
  Bacterial Biotransformation: Compound metabolized
[11]
  Bacterial Biotransformation: Compound metabolized
[12]
  Bacterial Biotransformation: Compound NOT metabolized
[13]
  Bacterial Biotransformation: Compound NOT metabolized
[14]
  Bacterial Biotransformation: Compound NOT metabolized
[15]
  Bacterial Biotransformation: Compound NOT metabolized
[16]
  Bacterial Biotransformation: Compound metabolized
[17]
  Bacterial Biotransformation: Compound metabolized
[18]
  Bacterial Biotransformation: Compound metabolized
[19]
  Bacterial Biotransformation: Compound metabolized
[20]
  Bacterial Biotransformation: Compound metabolized

## CC(CCc1ccccc1)NCC(O)c1ccc(O)c(C(N)=O)c1 (stereo not given) [LABETALOL]
[1]
  Bacterial Biotransformation: Compound NOT metabolized
[2]
  Bacterial Biotransformation: Compound NOT metabolized
[3]
  Bacterial Biotransformation: Compound NOT metabolized
[4]
  Bacterial Biotransformation: Compound NOT metabolized
[5]
  Bacterial Biotransformation: Compound NOT metabolized
[6]
  Bacterial Biotransformation: Compound NOT metabolized
[7]
  Bacterial Biotransformation: Compound NOT metabolized
[8]
  Bacterial Biotransformation: Compound NOT metabolized
[9]
  Bacterial Biotransformation: Compound NOT metabolized
[10]
  Bacterial Biotransformation: Compound NOT metabolized
[11]
  Bacterial Biotransformation: Compound NOT metabolized
[12]
  Bacterial Biotransformation: Compound NOT metabolized
[13]
  Bacterial Biotransformation: Compound metabolized
[14]
  Bacterial Biotransformation: Compound NOT metabolized
[15]
  Bacterial Biotransformation: Compound NOT metabolized
[16]
  Bacterial Biotransformation: Compound NOT metabolized
[17]
  Bacterial Biotransformation: Compound NOT metabolized
[18]
  Bacterial Biotransformation: Compound NOT metabolized
[19]
  Bacterial Biotransformation: Compound NOT metabolized
[20]
  Bacterial Biotransformation: Compound NOT metabolized

## Nc1nnc(-c2cccc(Cl)c2Cl)c(N)n1 [LAMOTRIGINE]
[1]
  Bacterial Biotransformation: Compound NOT metabolized
[2]
  Bacterial Biotransformation: Compound NOT metabolized
[3]
  Bacterial Biotransformation: Compound NOT metabolized
[4]
  Bacterial Biotransformation: Compound NOT metabolized
[5]
  Bacterial Biotransformation: Compound metabolized
[6]
  Bacterial Biotransformation: Compound NOT metabolized
[7]
  Bacterial Biotransformation: Compound NOT metabolized
[8]
  Bacterial Biotransformation: Compound NOT metabolized
[9]
  Bacterial Biotransformation: Compound NOT metabolized
[10]
  Bacterial Biotransformation: Compound NOT metabolized
[11]
  Bacterial Biotransformation: Compound NOT metabolized
[12]
  Bacterial Biotransformation: Compound NOT metabolized
[13]
  Bacterial Biotransformation: Compound NOT metabolized
[14]
  Bacterial Biotransformation: Compound NOT metabolized
[15]
  Bacterial Biotransformation: Compound NOT metabolized
[16]
  Bacterial Biotransformation: Compound NOT metabolized
[17]
  Bacterial Biotransformation: Compound NOT metabolized
[18]
  Bacterial Biotransformation: Compound NOT metabolized
[19]
  Bacterial Biotransformation: Compound NOT metabolized
[20]
  Bacterial Biotransformation: Compound NOT metabolized

## OC(c1cc(C(F)(F)F)nc2c(C(F)(F)F)cccc12)C1CCCCN1 (stereo not given) [MEFLOQUINE]
[1]
  Bacterial Biotransformation: Compound NOT metabolized
[2]
  Bacterial Biotransformation: Compound metabolized
[3]
  Bacterial Biotransformation: Compound NOT metabolized
[4]
  Bacterial Biotransformation: Compound metabolized
[5]
  Bacterial Biotransformation: Compound metabolized
[6]
  Bacterial Biotransformation: Compound NOT metabolized
[7]
  Bacterial Biotransformation: Compound NOT metabolized
[8]
  Bacterial Biotransformation: Compound metabolized
[9]
  Bacterial Biotransformation: Compound NOT metabolized
[10]
  Bacterial Biotransformation: Compound NOT metabolized
[11]
  Bacterial Biotransformation: Compound metabolized
[12]
  Bacterial Biotransformation: Compound metabolized
[13]
  Bacterial Biotransformation: Compound metabolized
[14]
  Bacterial Biotransformation: Compound NOT metabolized
[15]
  Bacterial Biotransformation: Compound NOT metabolized
[16]
  Bacterial Biotransformation: Compound metabolized
[17]
  Bacterial Biotransformation: Compound metabolized
[18]
  Bacterial Biotransformation: Compound metabolized
[19]
  Bacterial Biotransformation: Compound metabolized
[20]
  Bacterial Biotransformation: Compound metabolized

## CC(=O)O[C@]1(C(C)=O)CC[C@H]2[C@@H]3C=C(C)C4=CC(=O)CC[C@]4(C)[C@H]3CC[C@@]21C [MEGESTROL ACETATE]
[1]
  Bacterial Biotransformation: Compound metabolized
[2]
  Bacterial Biotransformation: Compound metabolized
[3]
  Bacterial Biotransformation: Compound metabolized
[4]
  Bacterial Biotransformation: Compound metabolized
[5]
  Bacterial Biotransformation: Compound metabolized
[6]
  Bacterial Biotransformation: Compound metabolized
[7]
  Bacterial Biotransformation: Compound metabolized
[8]
  Bacterial Biotransformation: Compound metabolized
[9]
  Bacterial Biotransformation: Compound metabolized
[10]
  Bacterial Biotransformation: Compound metabolized
[11]
  Bacterial Biotransformation: Compound metabolized
[12]
  Bacterial Biotransformation: Compound metabolized
[13]
  Bacterial Biotransformation: Compound NOT metabolized
[14]
  Bacterial Biotransformation: Compound NOT metabolized
[15]
  Bacterial Biotransformation: Compound metabolized
[16]
  Bacterial Biotransformation: Compound metabolized
[17]
  Bacterial Biotransformation: Compound metabolized
[18]
  Bacterial Biotransformation: Compound metabolized
[19]
  Bacterial Biotransformation: Compound metabolized
[20]
  Bacterial Biotransformation: Compound metabolized

## CC12CC3CC(C)(C1)CC(N)(C3)C2 [MEMANTINE]
[1]
  Bacterial Biotransformation: Compound NOT metabolized
[2]
  Bacterial Biotransformation: Compound NOT metabolized
[3]
  Bacterial Biotransformation: Compound NOT metabolized
[4]
  Bacterial Biotransformation: Compound NOT metabolized
[5]
  Bacterial Biotransformation: Compound metabolized
[6]
  Bacterial Biotransformation: Compound NOT metabolized
[7]
  Bacterial Biotransformation: Compound NOT metabolized
[8]
  Bacterial Biotransformation: Compound NOT metabolized
[9]
  Bacterial Biotransformation: Compound NOT metabolized
[10]
  Bacterial Biotransformation: Compound NOT metabolized
[11]
  Bacterial Biotransformation: Compound NOT metabolized
[12]
  Bacterial Biotransformation: Compound NOT metabolized
[13]
  Bacterial Biotransformation: Compound NOT metabolized
[14]
  Bacterial Biotransformation: Compound NOT metabolized
[15]
  Bacterial Biotransformation: Compound NOT metabolized
[16]
  Bacterial Biotransformation: Compound NOT metabolized
[17]
  Bacterial Biotransformation: Compound NOT metabolized
[18]
  Bacterial Biotransformation: Compound NOT metabolized
[19]
  Bacterial Biotransformation: Compound NOT metabolized
[20]
  Bacterial Biotransformation: Compound NOT metabolized

## Cc1cc(C)cc(OCC2CNC(=O)O2)c1 (stereo not given) [METAXALONE]
[1]
  Bacterial Biotransformation: Compound metabolized
[2]
  Bacterial Biotransformation: Compound metabolized
[3]
  Bacterial Biotransformation: Compound metabolized
[4]
  Bacterial Biotransformation: Compound metabolized
[5]
  Bacterial Biotransformation: Compound metabolized
[6]
  Bacterial Biotransformation: Compound metabolized
[7]
  Bacterial Biotransformation: Compound NOT metabolized
[8]
  Bacterial Biotransformation: Compound NOT metabolized
[9]
  Bacterial Biotransformation: Compound NOT metabolized
[10]
  Bacterial Biotransformation: Compound metabolized
[11]
  Bacterial Biotransformation: Compound metabolized
[12]
  Bacterial Biotransformation: Compound NOT metabolized
[13]
  Bacterial Biotransformation: Compound NOT metabolized
[14]
  Bacterial Biotransformation: Compound NOT metabolized
[15]
  Bacterial Biotransformation: Compound NOT metabolized
[16]
  Bacterial Biotransformation: Compound NOT metabolized
[17]
  Bacterial Biotransformation: Compound metabolized
[18]
  Bacterial Biotransformation: Compound metabolized
[19]
  Bacterial Biotransformation: Compound metabolized
[20]
  Bacterial Biotransformation: Compound metabolized
